The results in this text go back to patent publication US9326931B2, “Use of porphyrin-type catalytic oxidation compounds as an anti-dandruff agent” (L'OREAL, priority 2012, dated 2016).

The assay in a line: Test 1: Oxidation of 2,2,6,6-tetramethylpiperidine (TEMP), EPR detection of TEMPO. The note with it: porphyrin compound at 0.5 μM, 50 mM TEMP, phosphate buffer pH 7.4, oxygen-saturated, daylight, 1 hour. As to the method:
The oxidizing agent used in this test is dissolved oxygen. A solution comprising a phosphate buffer (pH 7.4), 50 mM of the compound 2,2,6,6-tetramethylpiperidine (TEMP) and a porphyrin compound at 0.5 μM is prepared. The solution is saturated with oxygen. The solution is placed in daylight. After 1 hour, electron paramagnetic resonance (EPR) spectrometry of the oxidized form of the compound 2,2,6,6-tetramethylpiperidine (TEMP), which corresponds to the compound […], known as TEMPO, is performed. In accordance with the scientific publication Lion et al., 1976; Moan and Wold, 1979, the presence of the compound in TEMPO form is indicative of the oxidation produced by oxygen on the compound 2,2,6,6-tetramethylpiperidine and thus of the catalytic effect of the porphyrin compound. […] With a porphyrin compound according to the invention, the appearance of the TEMPO compound is observed after 1 hour of placing in contact.

As for copper chlorophyllin, the “catalytic oxidation activity: formation of the TEMPO compound from TEMP (test 1)” value is listed as “does not lead to the formation of the TEMPO compound”.
